{"source": "patent US20190175491A1", "about": "“TOPICAL COMPOSITIONS OF APREMILAST” (TORRENT PHARMACEUTICALS LIMITED, priority 2016, published 2019)", "key": {"Solubility of apremilast": {"assay": "Solubility of apremilast", "assay_type": "physicochemical", "source_text": "Apremilast is insoluble in water. Even in polar solvent phase, only 0.066% of apremilast was found soluble. Therefore, it is challenging to formulate a topical composition of apremilast having an amount, which provides effective concentration of apremilast at the site of action."}, "[1]": {"conditions": "cited from earlier work"}, "[2]": {"conditions": "oral Apremilast; cited from earlier work"}}, "data": [{"smiles": "CCOc1cc([C@@H](CS(C)(=O)=O)N2C(=O)c3cccc(NC(C)=O)c3C2=O)ccc1OC", "note": "[Apremilast, N-{2-[(1S)-1-(3-Ethoxy-4-methoxyphenyl)-2-(methylsulfonyl)ethyl]-1,3-dioxo-2,3-dihydro-1H-isoindol-4-yl} acetamide]", "values": [{"measurement": "apremilast found soluble in polar solvent phase", "setting": "Solubility of apremilast", "result": 0.066, "unit": "%"}, {"measurement": "solubility in water", "setting": "[1]", "result": "insoluble"}, {"measurement": "most commonly reported adverse reactions", "setting": "[2]", "result": "Diarrhea, nausea and headache"}]}]}
